Laboratory results reported in PubChem BioAssay AID248 (DTP/NCI, 2004).
Values joined by “and” are separate entries in the source; they are usually repeats but may differ in a detail not shown here. Identical values can stand only once. Inconclusive results and toxic doses are left out. Cut-off read from the data, not from the text of the source: active = T/C of 150% or more; inactive = T/C below 125%.

System: L1210 leukemia ip in BDF1 mice, survival T/C
Test: NCI In Vivo Anticancer Drug Screen. Data for tumor model L1210 Leukemia (intraperitoneal) in B6D2F1 (BDF1) mice
Settings: endpoint: mean survival time, higher = longer survival
Outline: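 Ratio derived from survival: compound-dosed mice over vehicle-dosed mice, all bearing a transplantable tumor.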

[1] = dose: 100.0 mg/kg/injection, schedule: Q01DX001 (ip), vehicle: carboxymethylcellulose (CMC)
[2] = dose: 200.0 mg/kg/injection, schedule: Q01DX001 (ip), vehicle: carboxymethylcellulose (CMC)
[3] = dose: 400.0 mg/kg/injection, schedule: Q01DX001 (ip), vehicle: carboxymethylcellulose (CMC)
[4] = dose: 100.0 mg/kg/injection, schedule: Q01DX009 (ip), vehicle: Klucel (hydroxypropylcellulose) (HPC)
[5] = dose: 200.0 mg/kg/injection, schedule: Q01DX009 (ip), vehicle: Klucel (hydroxypropylcellulose) (HPC)
[6] = dose: 400.0 mg/kg/injection, schedule: Q01DX009 (ip), vehicle: Klucel (hydroxypropylcellulose) (HPC)
[7] = dose: 100.0 mg/kg/injection, schedule: Q04DX003 (ip), vehicle: Klucel (hydroxypropylcellulose) (HPC)
[8] = dose: 200.0 mg/kg/injection, schedule: Q04DX003 (ip), vehicle: Klucel (hydroxypropylcellulose) (HPC)
[9] = dose: 400.0 mg/kg/injection, schedule: Q04DX003 (ip), vehicle: Klucel (hydroxypropylcellulose) (HPC)
[10] = dose: 100.0 mg/kg/injection, schedule: Q01DX009 (ip), vehicle: saline with Tween-80
[11] = dose: 100.0 mg/kg/injection, schedule: Q04DX003 (ip), vehicle: saline
[12] = dose: 200.0 mg/kg/injection, schedule: Q04DX003 (ip), vehicle: saline
[13] = dose: 400.0 mg/kg/injection, schedule: Q04DX003 (ip), vehicle: saline
[14] = dose: 50.0 mg/kg/injection, schedule: Q01DX009 (ip), vehicle: Klucel (hydroxypropylcellulose) (HPC)
[15] = dose: 50.0 mg/kg/injection, schedule: Q01DX009 (ip), vehicle: saline with Tween-80
[16] = dose: 200.0 mg/kg/injection, schedule: Q01DX009 (ip), vehicle: saline with Tween-80

Measured: T/C

O=C(Nc1ccc2oc(=O)c3ccccc3c2c1)C(Cl)Cl
inactive: dose: 15.0 mg/kg/injection, schedule: Q01DX015 (ip), vehicle: carboxymethylcellulose (CMC) 88 % of control | dose: 30.0 mg/kg/injection, schedule: Q01DX015 (ip), vehicle: carboxymethylcellulose (CMC) 88 % of control | dose: 60.0 mg/kg/injection, schedule: Q01DX015 (ip), vehicle: carboxymethylcellulose (CMC) 94 % of control | [1] 97 % of control | dose: 120.0 mg/kg/injection, schedule: Q01DX015 (ip), vehicle: carboxymethylcellulose (CMC) 93 % of control and 96 % of control | [2] 109 % of control | dose: 240.0 mg/kg/injection, schedule: Q01DX015 (ip), vehicle: carboxymethylcellulose (CMC) 98 % of control | [3] 103 % of control | dose: 480.0 mg/kg/injection, schedule: Q01DX015 (ip), vehicle: carboxymethylcellulose (CMC) 98 % of control

CC1([N+](=O)[O-])COP(=O)(NCCCN2CCOCC2)OC1 (stereo unspecified)
inactive: [1] 97 % of control | [2] 97 % of control | [3] 97 % of control

CCOC(=O)n1cnc(N)n1
inactive: [4] 104 % of control | [5] 104 % of control | [6] 107 % of control

CCN(CC)C(=S)SCC(=O)O
inactive: dose: 100.0 mg/kg/injection, schedule: Q04DX003 (ip), vehicle: other 101 % of control | dose: 200.0 mg/kg/injection, schedule: Q04DX003 (ip), vehicle: other 98 % of control | dose: 400.0 mg/kg/injection, schedule: Q04DX003 (ip), vehicle: other 98 % of control

ClC1(c2ccccc2)c2ccc(Br)cc2-c2cc(Br)ccc21
inactive: [4] 103 % of control | [7] 104 % of control | [5] 100 % of control | [8] 107 % of control | [6] 108 % of control | [9] 94 % of control

C=CCNC(=S)Nc1cccc([N+](=O)[O-])c1
inactive: dose: 50.0 mg/kg/injection, schedule: Q01DX001 (ip), vehicle: carboxymethylcellulose (CMC) 111 % of control | [1] 94 % of control | [2] 94 % of control | [3] 100 % of control

CN(C)C(=O)NN
inactive: [10] 104 % of control

NC(N)=Nc1ccc(S(=O)(=O)O)cc1
inactive: [11] 103 % of control | [12] 105 % of control | [13] 103 % of control

S=C1NC(c2cccc(Cl)c2)N2C(=S)NC(c3cccc(Cl)c3)N12 (stereo unspecified)
inactive: dose: 25.0 mg/kg/injection, schedule: Q01DX009 (ip), vehicle: gum acacia 95 % of control | dose: 50.0 mg/kg/injection, schedule: Q01DX009 (ip), vehicle: gum acacia 95 % of control | dose: 100.0 mg/kg/injection, schedule: Q01DX009 (ip), vehicle: gum acacia 101 % of control | dose: 100.0 mg/kg/injection, schedule: Q04DX003 (ip), vehicle: gum acacia 101 % of control | dose: 200.0 mg/kg/injection, schedule: Q01DX009 (ip), vehicle: gum acacia 88 % of control | dose: 200.0 mg/kg/injection, schedule: Q04DX003 (ip), vehicle: gum acacia 93 % of control | dose: 400.0 mg/kg/injection, schedule: Q01DX009 (ip), vehicle: gum acacia 87 % of control | dose: 400.0 mg/kg/injection, schedule: Q04DX003 (ip), vehicle: gum acacia 97 % of control

Cc1ccc(C(C)C)cc1NC(=O)/C=C/c1ccccc1
inactive: dose: 6.25 mg/kg/injection, schedule: Q01DX009 (ip), vehicle: saline with Tween-80 97 % of control and 98 % of control | dose: 12.5 mg/kg/injection, schedule: Q01DX009 (ip), vehicle: saline with Tween-80 97 % of control and 98 % of control | dose: 25.0 mg/kg/injection, schedule: Q04DX003 (ip), vehicle: saline with Tween-80 88 % of control | dose: 50.0 mg/kg/injection, schedule: Q01DX001 (ip), vehicle: saline with Tween-80 95 % of control | dose: 50.0 mg/kg/injection, schedule: Q04DX003 (ip), vehicle: saline with Tween-80 88 % of control | dose: 100.0 mg/kg/injection, schedule: Q01DX001 (ip), vehicle: saline with Tween-80 94 % of control | dose: 100.0 mg/kg/injection, schedule: Q04DX002 (ip), vehicle: saline with Tween-80 93 % of control and 96 % of control | dose: 100.0 mg/kg/injection, schedule: Q04DX003 (ip), vehicle: saline with Tween-80 88 % of control | dose: 200.0 mg/kg/injection, schedule: Q01DX001 (ip), vehicle: saline with Tween-80 86 % of control and 87 % of control | dose: 200.0 mg/kg/injection, schedule: Q04DX002 (ip), vehicle: saline with Tween-80 88 % of control and 90 % of control | dose: 200.0 mg/kg/injection, schedule: Q04DX003 (ip), vehicle: saline with Tween-80 89 % of control | dose: 400.0 mg/kg/injection, schedule: Q01DX001 (ip), vehicle: saline with Tween-80 94 % of control and 108 % of control | dose: 400.0 mg/kg/injection, schedule: Q04DX002 (ip), vehicle: saline with Tween-80 96 % of control and 88 % of control

CC1(CO)CCCC2(C)c3cc(O)ccc3CCC12 (stereo unspecified)
inactive: dose: 100.0 mg/kg/injection, schedule: Q01DX009 (ip), vehicle: acetone 90 % of control | [11] 97 % of control | [12] 97 % of control | [13] 97 % of control

O=C(O)C1CCCN(C(=O)OCc2ccccc2)C1 (stereo unspecified)
inactive: [14] 97 % of control | [4] 100 % of control | [7] 90 % of control | [5] 97 % of control | [8] 90 % of control | [9] 97 % of control

Cc1cccc(S(=O)(=O)F)c1
inactive: [15] 91 % of control | [10] 100 % of control | dose: 100.0 mg/kg/injection, schedule: Q04DX003 (ip), vehicle: acetone 101 % of control | [16] 88 % of control | dose: 200.0 mg/kg/injection, schedule: Q04DX003 (ip), vehicle: acetone 97 % of control

Cc1cc([N+](=O)[O-])c(C)cc1Cl
inactive: dose: 100.0 mg/kg/injection, schedule: Q01DX009 (ip), vehicle: saline sonified 98 % of control | [7] 98 % of control | dose: 200.0 mg/kg/injection, schedule: Q01DX009 (ip), vehicle: saline sonified 100 % of control | [8] 98 % of control | dose: 400.0 mg/kg/injection, schedule: Q01DX009 (ip), vehicle: saline sonified 100 % of control | [9] 98 % of control

CC(C)(C)C1CC(C(F)(F)F)(C(F)(F)F)OS(=O)O1 (stereo unspecified)
inactive: dose: 12.5 mg/kg/injection, schedule: Q01DX009 (ip), vehicle: saline 96 % of control | dose: 12.5 mg/kg/injection, schedule: Q04DX003 (ip), vehicle: saline 102 % of control | dose: 25.0 mg/kg/injection, schedule: Q01DX009 (ip), vehicle: saline 94 % of control | dose: 25.0 mg/kg/injection, schedule: Q04DX003 (ip), vehicle: saline 91 % of control | dose: 50.0 mg/kg/injection, schedule: Q01DX009 (ip), vehicle: saline 100 % of control | dose: 50.0 mg/kg/injection, schedule: Q04DX003 (ip), vehicle: saline 94 % of control

CC12CCCC=C1CC(C(C)(C)O)CC2 (stereo unspecified)
inactive: [15] 96 % of control | [10] 100 % of control | [16] 100 % of control

COc1cc(OC)c(N=CN(C)C)cc1Cl
inactive: dose: 25.0 mg/kg/injection, schedule: Q01DX009 (ip), vehicle: Klucel (hydroxypropylcellulose) (HPC) 104 % of control | [14] 102 % of control | dose: 75.0 mg/kg/injection, schedule: Q01DX009 (ip), vehicle: Klucel (hydroxypropylcellulose) (HPC) 99 % of control and 105 % of control
